Test results published in patent US11970478B1, “9-(2-hydroxyquinolin-3-yl)-10-(2-hydroxyethyl)-3,3,6,6-tetramethyl-3,4,6,7,9,10-hexahydroacridine1,8(2H,5H)-dione as an antimicrobial compound” (KING FAISAL UNIVERSITY, priority 2023, dated 2024).

Assays:
Conditions in all cases: after 10, 20, 40 and 60 minutes at all dilutions 1:100 to 1:800
St. Aereus = test: Antimicrobial activity by agar dilution, St. Aereus; format: cell-based, Staphylococcus aureus
Description: (§1) The antimicrobial properties of the synthesized compound 9-(2-hydroxyquinolin-3-yl)-10-(2-hydroxyethyl)-3,3,6,6-tetramethyl-3,4,6,7,9,10-hexahydroacridine1,8(2H,5H)-dione were studied by the method of agar dilution. Test solutions of each compound were prepared in a concentration of 1% using dimethylformamide as a solvent. Then they were diluted in a physiological solution to obtain the final experimental dilutions 1:100, 1:200, 1:400, and 1:800. The effect of these substances were compared with furacillin in a controllable study. The testing microbes used were gram positive bacteria St. Aereus, gram negative bacteria E. Coli and Ps. Aeruginosa, and Candida albicans fungi. The experiments used for this survey were meat-pentonlu agar (EPA) for cultivation of bacteria and Saburo environment for fungi. Each experiment used 1 ml of test solution on each plate 500 min. Add 2 drops of emulsified with microbes feel. All experimental samples were taken from the agar after 10, 20, 40, 60 minutes in the environment on the basis of Patrk planted. Bacteria were cultivated at a temperature of 37° C. for 1 day and the mushroom was kept in a thermostat for 2 hours at a temperature of 28° C. Then the results were checked.

E. Coli = test: Antimicrobial activity by agar dilution, E. Coli; format: cell-based, Escherichia coli
Description: as §1

Ps. Aeruginosa = test: Antimicrobial activity by agar dilution, Ps. Aeruginosa; format: cell-based, Pseudomonas aeruginosa
Description: as §1

Candida albicans = test: Antimicrobial activity by agar dilution, Candida albicans; format: cell-based
Description: as §1

Measured: inhibition activity (in words)

CC1(C)CC(=O)C2=C(C1)N(CCO)C1=C(C(=O)CC(C)(C)C1)C2c1cc2ccccc2nc1O [9-(2-hydroxyquinolin-3-yl)-10-(2-hydroxyethyl)-3,3,6,6-tetramethyl-3,4,6,7,9,10-hexahydroacridine1,8(2H,5H)-dione]
highest inhibition activity: all assays above
